From publication PMC3171408, “Analysis of the BarA/UvrY Two-Component System in Shewanella oneidensis MR-1” (PLoS ONE, 2011) come the findings set out here.

For this assay, the target named is T1, BarA(181–929) (Shewanella oneidensis, UniProt Q8EBQ2).
T1 construct: cytoplasmic region aa 181-929 of 929 aa (full length 103 kDa; two N-terminal TM domains removed), N-terminal 6xHis tag (pBAD-HisA), expressed in E. coli, Ni-NTA purified
T1 sequence (Q8EBQ2 187-935): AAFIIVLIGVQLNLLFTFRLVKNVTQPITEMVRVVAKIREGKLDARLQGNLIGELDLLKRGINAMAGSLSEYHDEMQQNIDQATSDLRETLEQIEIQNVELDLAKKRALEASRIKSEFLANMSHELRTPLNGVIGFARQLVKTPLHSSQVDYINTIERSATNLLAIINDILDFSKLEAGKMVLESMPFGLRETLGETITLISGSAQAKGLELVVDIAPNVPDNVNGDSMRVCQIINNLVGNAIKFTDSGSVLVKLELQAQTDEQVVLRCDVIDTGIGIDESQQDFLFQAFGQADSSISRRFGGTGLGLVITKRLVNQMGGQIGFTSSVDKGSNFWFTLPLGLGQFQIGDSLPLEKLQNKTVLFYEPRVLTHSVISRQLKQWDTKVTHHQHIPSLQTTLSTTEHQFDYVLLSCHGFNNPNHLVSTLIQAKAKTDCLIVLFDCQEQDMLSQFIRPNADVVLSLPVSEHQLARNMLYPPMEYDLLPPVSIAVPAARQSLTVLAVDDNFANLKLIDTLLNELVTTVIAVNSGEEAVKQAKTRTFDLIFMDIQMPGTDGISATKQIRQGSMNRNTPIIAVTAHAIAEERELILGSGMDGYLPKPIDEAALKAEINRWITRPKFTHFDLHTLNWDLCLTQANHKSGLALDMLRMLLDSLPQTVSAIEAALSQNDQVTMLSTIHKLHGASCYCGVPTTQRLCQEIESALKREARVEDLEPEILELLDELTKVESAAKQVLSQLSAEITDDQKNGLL
Briefly: autophosphorylation, SDS-PAGE autoradiography. In kind it is biochemical. The following applies: 0.5 mM ATP, 10 µM protein, 5 mM MgCl2, 50 mM KCl, pH 8.0, room temperature; labelled compound.

As to `Nc1ncnc2c1ncn2[C@@H]1O[C@H](COP(=O)(O)OP(=O)(O)OP(=O)(O)O)[C@@H](O)[C@H]1O` [[γ-^32P]ATP], the “autophosphorylation, SDS-PAGE autoradiography” value was “BarA was readily phosphorylated, indicating autophosphorylation activity of the kinase region”.
